What follows are compounds tested against Human Factor XIIa (Homo sapiens (Human), UniProt P00748) (assay: Determination of FXIIa inhibition (fluorogenic substrate H-DPro-Phe-Arg-AFC, IC50 assay)). Details: substrate H-DPro-Phe-Arg-AFC at Km, 25° C.; class scale A-G.
Chain of Human Factor XIIa (P00748 373-615): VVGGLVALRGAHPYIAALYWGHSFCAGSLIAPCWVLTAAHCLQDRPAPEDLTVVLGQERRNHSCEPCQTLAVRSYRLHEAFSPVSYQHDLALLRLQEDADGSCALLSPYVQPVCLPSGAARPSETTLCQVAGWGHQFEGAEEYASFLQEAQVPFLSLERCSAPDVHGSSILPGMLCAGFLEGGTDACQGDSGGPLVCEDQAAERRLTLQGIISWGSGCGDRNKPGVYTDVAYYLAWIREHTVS
Assay type: biochemical
Description: Determination of FXIIa Inhibition
In vitro inhibition of Factor XIIa was determined using an IC50 assay based on standard literature methods (see e.g Baeriswyl et al., ACS Chem. Biol., 2015, 10 (8) 1861; Bouckaert et al., European Journal of Medicinal Chemistry 110 (2016) 181). Human Factor XIIa (Enzyme Research Laboratories) was incubated at 25° C. with the fluorogenic substrate H-DPro-Phe-Arg-AFC (Peptide Protein Science) and various concentrations of the test compound. Protease activity was measured by monitoring the accumulation of liberated fluorescence from the substrate over 5 min at 25° C. The linear rate of fluorescence increase per minute was expressed as percentage (%) activity. The Km for the cleavage of the substrate by FXIIa was determined by standard transformation of the Michaelis-Menten equation. The compound inhibitor assays were performed at substrate Km concentration. IC50 values were calculated as the concentration of inhibitor giving 50% inhibition (IC50) of the uninhibited enzyme activity (100%).
With Cc1cc(N2Cc3nnc(C(F)(F)F)n3C[C@H]2C)ncc1CNc1cccc2c(N)nccc12 [Example 1342, (R)-N5-((4-methyl-6-(6-methyl-3-(trifluoromethyl)-5,6-dihydro-[1,2,4]triazolo[4,3-a]pyrazin-7(8H)-yl)pyridin-3-yl)methyl)isoquinoline-1,5-diamine] the IC50 was 0.01 to 0.1 µM. With Cn1ccnc1COc1cc(CNc2ccc3c(N)nccc3c2)ccn1 [Example 4422, 6-N-({2-[(1-methylimidazol-2-yl)methoxy]pyridin-4-yl}methyl)isoquinoline-1,6-diamine] the IC50 was 3 to 10 µM. In the case of CN1CCC(OCc2ccc(CN(C)c3cccc4c(N)nccc34)c(Cl)c2)CC1 [Example 2203, 5-N-[(2-chloro-4-{[(1-methylpiperidin-4-yl)oxy]methyl}phenyl)methyl]-5-N-methylisoquinoline-1,5-diamine], the IC50 is reported as 1 to 3 µM. CN1CCN(C(=O)Cc2ccc(CNc3ccc4c(N)nccc4c3)cc2)CC1 [Example 2179, 2-(4-{[(1-aminoisoquinolin-6-yl)amino]methyl}phenyl)-1-(4-methylpiperazin-1-yl)ethanone] showed an IC50 of 1 to 3 µM. For Nc1nccc2c(NCc3cnc(N4CCn5c(nnc5C(F)(F)F)C4)c(CO)c3)cccc12 [Example 1335, (5-(((1-aminoisoquinolin-5-yl)amino)methyl)-2-(3-(trifluoromethyl)-5,6-dihydro-[1,2,4]triazolo[4,3-a]pyrazin-7(8H)-yl)pyridin-3-yl)methanol], the IC50 was 10 to 40 µM. Work on Cn1ccnc1CCCNc1ncc(CNc2ccc3c(N)ncc(Cl)c3c2)cn1 [Example 1038, 4-chloro-6-N-[(2-{[3-(1-methylimidazol-2-yl)propyl]amino}pyrimidin-5-yl)methyl]isoquinoline-1,6-diamine] yielded an IC50 of 3 to 10 µM. For CN1CCC(COc2ccc(CCc3cccc4c(N)nccc34)cn2)CC1 [Example 1019, 5-(2-{6-[(1-methylpiperidin-4-yl)methoxy]pyridin-3-yl}ethyl)isoquinolin-1-amine], the IC50 was 3 to 10 µM. With Cc1cc(N2CCn3c(nnc3C(F)(F)F)C2C)cnc1CNc1cccc2c(N)nccc12 (single isomer, unassigned) [Example 1346, (S*)-N5-((3-methyl-5-(8-methyl-3-(trifluoromethyl)-5,6-dihydro-[1,2,4]triazolo[4,3-a]pyrazin-7(8H)-yl)pyridin-2-yl)methyl)isoquinoline-1,5-diamine] the IC50 was 1 to 3 µM. For Nc1nccc2cc(NCc3ccnc(OCC4CCn5ccnc5C4)c3)ccc12 (centres unmarked) [Example 4408, N6-((2-((5,6,7,8-tetrahydroimidazo[1,2-a]pyridin-7-yl)methoxy)pyridin-4-yl)methyl)isoquinoline-1,6-diamine], the IC50 was 0.1 to 0.3 µM. Cc1cc(N2CCn3c(nnc3C(F)(F)F)C2)ncc1CNc1ccc2nccn2c1 [Example 1322, N-((4-methyl-6-(3-(trifluoromethyl)-5,6-dihydro-[1,2,4]triazolo[4,3-a]pyrazin-7(8H)-yl)pyridin-3-yl)methyl)imidazo[1,2-a]pyridin-6-amine] was tested, and the IC50 was 10 to 40 µM. With Cc1cc(N2CCn3c(nnc3C(F)(F)F)C2C)ncc1CNc1ccnc2[nH]c(Cl)cc12 (racemic) [Example 1314, 2-Chloro-N-((4-methyl-6-(8-methyl-3-(trifluoromethyl)-5,6-dihydro-[1,2,4]triazolo[4,3-a]pyrazin-7(8H)-yl)pyridin-3-yl)methyl)-1H-pyrrolo[2,3-b]pyridin-4-amine] the IC50 was 0.01 to 0.1 µM. For Nc1nccc2cc(NCc3ccc(OCCCn4ccnc4)nc3)ccc12 [Example 1031, 6-N-({6-[3-(imidazol-1-yl)propoxy]pyridin-3-yl}methyl)isoquinoline-1,6-diamine], the IC50 was 1 to 3 µM. Work on CN(Cc1ccc(N2CCn3c(nnc3C(F)(F)F)C2)nc1)c1cccc2c(N)nccc12 [Example 1332, N5-methyl-N5-((6-(3-(trifluoromethyl)-5,6-dihydro-[1,2,4]triazolo[4,3-a]pyrazin-7(8H)-yl)pyridin-3-yl)methyl)isoquinoline-1,5-diamine] yielded an IC50 of 3 to 10 µM. With COc1nc(OCC2CCN(C)CC2)ccc1CNc1ccc2c(N)nccc2c1 [Example 1027, N6-((2-methoxy-6-((1-methylpiperidin-4-yl)methoxy)pyridin-3-yl)methyl)isoquinoline-1,6-diamine] the IC50 was 0.1 to 0.3 µM. CN1CCC(CNc2ccc(CNc3cc(Cl)cc4[nH]ccc34)cn2)CC1 [Example 1241, 6-chloro-N-((6-(((1-methylpiperidin-4-yl)methyl)amino)pyridin-3-yl)methyl)-1H-indol-4-amine] gave an IC50 of 10 to 40 µM. CN1CCN(CCc2cccc(CNc3ccc4c(N)nccc4c3)c2)CC1 [Example 4288, 6-N-({3-[2-(4-methylpiperazin-1-yl)ethyl]phenyl}methyl)isoquinoline-1,6-diamine] showed an IC50 of 3 to 10 µM. In the case of Cn1ccnc1COc1cc(CNc2cccc3c(N)nccc23)ccn1 [Example 4423, N5-((2-((1-methyl-1H-imidazol-2-yl)methoxy)pyridin-4-yl)methyl)isoquinoline-1,5-diamine], the IC50 is reported as 3 to 10 µM. CC(Oc1cc(CNc2ccc3c(N)nccc3c2)ccn1)C1CCN(C)CC1 (centres unmarked) [Example 4414, 6-N-({2-[1-(1-methylpiperidin-4-yl)ethoxy]pyridin-4-yl}methyl)isoquinoline-1,6-diamine] gave an IC50 of 0.1 to 0.3 µM. Nc1nccc2cc(NCc3ccnc(OCC4CCn5cc(C(F)(F)F)nc5C4)c3)ccc12 (centres unmarked) [Example 4266, 6-N-[(2-{[2-(trifluoromethyl)-5H,6H,7H,8H-imidazo[1,2-a]pyridin-7-yl]methoxy}pyridin-4-yl)methyl]isoquinoline-1,6-diamine] showed an IC50 of 1 to 3 µM. In the case of CN1CCC(CCc2cc(CNc3ccc4c(N)nccc4c3)ccn2)CC1 [Example 4409, 6-N-({2-[2-(1-methylpiperidin-4-yl)ethyl]pyridin-4-yl}methyl)isoquinoline-1,6-diamine], the IC50 is reported as 0.3 to 1 µM. With COCC1c2nnc(C(F)(F)F)n2CCN1c1cc(C)c(CNc2cccc3c(N)nccc23)cn1 (single isomer, unassigned) [Example 1343, (S*)-N5-((6-(8-(methoxymethyl)-3-(trifluoromethyl)-5,6-dihydro-[1,2,4]triazolo[4,3-a]pyrazin-7(8H)-yl)-4-methylpyridin-3-yl)methyl)isoquinoline-1,5-diamine] the IC50 was 3 to 10 µM. Work on CN1CC2(CC(OCc3ccc(CNc4ccc5c(N)nccc5c4)c(F)c3)CS2)C1 (centres unmarked) [Example 2252, 6-N-({2-fluoro-4-[({2-methyl-5-thia-2-azaspiro[3.4]octan-7-yl}oxy)methyl]phenyl}methyl)isoquinoline-1,6-diamine] yielded an IC50 of 0.3 to 1 µM. Compound CCC1c2nnc(C(F)(F)F)n2CCN1c1cc(C)c(CNc2cccc3c(N)nccc23)cn1 (single isomer, unassigned) [Example 1321, (S*)-N5-((6-(8-ethyl-3-(trifluoromethyl)-5,6-dihydro-[1,2,4]triazolo[4,3-a]pyrazin-7(8H)-yl)-4-methylpyridin-3-yl)methyl)isoquinoline-1,5-diamine] has an IC50 of 0.1 to 0.3 µM. Compound Nc1nccc2cc(NCc3ccc(OC[C@H]4CCn5ccnc5C4)nc3)ccc12 (single isomer, unassigned) [Example 1024, 6-N-({6-[(7S*)-5H,6H,7H,8H-imidazo[1,2-a]pyridin-4-yl}-ylmethyl)isoquinoline-1,6-diamine] has an IC50 of 0.1 to 0.3 µM. In the case of CC(C)N1CCC(OCc2cc(CNc3ccc4c(N)ncc(Cl)c4c3)ccn2)CC1 [Example 4296, 4-chloro-6-N-[(2-{[(1-isopropylpiperidin-4-yl)oxy]methyl}pyridin-4-yl)methyl]isoquinoline-1,6-diamine], the IC50 is reported as 1 to 3 µM. Work on CN1CCC(CCOc2ccc(CNc3ccc4c(N)nccc4c3)cn2)CC1 [Example 1032, 6-N-({6-[2-(1-methylpiperidin-4-yl)ethoxy]pyridin-3-yl}methyl)isoquinoline-1,6-diamine] yielded an IC50 of 0.3 to 1 µM. Compound Nc1nccc2c(NCc3ccc(N4CCn5c(nnc5C(F)(F)F)C4)cc3F)cccc12 [Example 2256, N5-(2-Fluoro-4-(3-(trifluoromethyl)-5,6-dihydro-[1,2,4]triazolo[4,3-a]pyrazin-7(8H)-yl)benzyl)isoquinoline-1,5-diamine] has an IC50 of 0.01 to 0.1 µM. In the case of CN1CCC(CCn2cc(CNc3cccc4c(N)nccc34)cn2)CC1 [Example 3255, N5-((1-(2-(1-methylpiperidin-4-yl)ethyl)-1H-pyrazol-4-yl)methyl)isoquinoline-1,5-diamine], the IC50 is reported as 0.3 to 1 µM. CN1CCC(C)(COc2cc(CNc3ccc4c(N)nccc4c3)ccn2)CC1 [Example 4425, 6-N-({2-[(1,4-dimethylpiperidin-4-yl)methoxy]pyridin-4-yl}methyl)isoquinoline-1,6-diamine] showed an IC50 of 0.3 to 1 µM. CN1CCC(COc2cc(CNc3cnc4[nH]cc(Cl)c4c3)ccn2)CC1 [Example 4264, 3-chloro-N-((2-((1-methylpiperidin-4-yl)methoxy)pyridin-4-yl)methyl)-1H-pyrrolo[2,3-b]pyridin-5-amine] showed an IC50 of 10 to 40 µM. Nc1nccc2c(NCc3cc(N4CCn5c(nnc5C(F)(F)F)C4)cs3)cccc12 [Example 8459, N5-((4-(3-(Trifluoromethyl)-5,6-dihydro-[1,2,4]triazolo[4,3-a]pyrazin-7(8H)-yl)thiophen-2-yl)methyl)isoquinoline-1,5-diamine] gave an IC50 of 0.1 to 0.3 µM. CN1CCC(COc2ccc(CNc3ccc4c(N)ncnc4c3)cn2)CC1 [Example 1021, N7-((6-((1-methylpiperidin-4-yl)methoxy)pyridin-3-yl)methyl)quinazoline-4,7-diamine] was tested, and the IC50 was 10 to 40 µM.

— patent publication US20240059691A1 (KALVISTA PHARMACEUTICALS LIMITED, priority 2020, published 2024)
